The target in data set [1] is Gamma-secretase. Put plainly: Inhibition of gamma-secretase mediated amyloid beta-40 production in HEK293 cells by whole cell-based assay. The arrangement: species or system Homo sapiens.
Data set [2] addresses Gamma-secretase. Description: Inhibition of gamma-secretase mediated amyloid beta-40 production in HEK293 cell membranes. The format is cell-based, Homo sapiens.
The next data set can be described thus: in vivo. Particulars: rat, plasma, po, 10 mg/kg.

Drawing on ChEMBL document CHEMBL1138400, “Discovery of gamma-secretase inhibitors efficacious in a transgenic animal model of Alzheimer's disease” (Bioorg Med Chem Lett, 2007), this text covers IC50 and AUC(0-t) for 33 molecules.

Broadly, the IC50 is the midpoint of a concentration-inhibition curve. Low readings indicate higher potency, high ones lower potency. As a reminder, the AUC(0-t) is the area under the concentration-time curve up to a stated or last time point. A higher AUC(0-t) goes with high exposure.

Description for in vivo: AUC (0 to 6h) in rat at 10 mg/kg, po

Turning to `C[C@H]1CN(C(C)(CO)CO)CCN1C(=O)OC1(C2CCCC(c3cccc(F)c3)N2S(=O)(=O)c2ccc(Cl)cc2)CC1` (mixture of isomers), the IC50 stood at 5.1 nM against Gamma-secretase [1] and 0.9 nM against Gamma-secretase [2]. Further, the area under the curve AUC(0-t) at 6 h in the data set “in vivo” was determined as 1770 ng·h/mL.

With `CN1CN(C)C2(CCN(C(=O)OC3(C4CCCC(c5cc(F)cc(F)c5)N4S(=O)(=O)c4ccc(Cl)cc4)CC3)CC2)C1=O` (racemic), it took 5.3 nM to reach half-maximal inhibition on Gamma-secretase [2] (IC50).

As to `O=C(OCC1CCCC(c2cc(F)cc(F)c2)N1S(=O)(=O)c1ccc(Cl)cc1)N1CCNCC1` (racemic), at Gamma-secretase [2], the IC50 was 74.8 nM. This IC50 lies about 14-fold higher than the previous one.

`O=C(OCC1CCCC(c2cccc(F)c2)N1S(=O)(=O)c1ccc(Cl)cc1)N1CCC(N2CCCCC2)CC1` (racemic): it took 11.2 nM to reach half-maximal inhibition against Gamma-secretase [2] (IC50). In addition, the AUC(0-t) at 6 h in the data set “in vivo” stood at 1380 ng·h/mL.

In the case of `CC(C)N1CCN(C(=O)OC2(C3CCCC(c4cc(F)cc(F)c4)N3S(=O)(=O)c3ccc(Cl)cc3)CC2)CC1` (racemic), the IC50 on Gamma-secretase [1] came out at 17 nM; against Gamma-secretase [2] it was 2.7 nM. In the data set “in vivo”, this molecule yielded an AUC(0-t) at 6 h of 783 ng·h/mL.

At Gamma-secretase [2], `CN(c1ccccc1)C1CCN(C(=O)OC2(C3CCCC(c4cccc(F)c4)N3S(=O)(=O)c3ccc(Cl)cc3)CC2)CC1` (racemic) returned an IC50 of 15.4 nM.

In turn, `CN(c1ccccc1)C1CCN(C(=O)OCC2CCCC(c3cc(F)cc(F)c3)N2S(=O)(=O)c2ccc(Cl)cc2)CC1` (racemic) had an IC50 against Gamma-secretase [2] of 165 nM.

On to `O=C(OC1(C2CCCC(c3cccc(F)c3)N2S(=O)(=O)c2ccc(Cl)cc2)CC1)N1CCC(N2CCC(F)(F)CC2)CC1` (racemic), for which the results for the IC50 at Gamma-secretase [1] and on Gamma-secretase [2] were 5.5 nM and 2.3 nM, respectively. Also, in the data set “in vivo”, the AUC(0-t) at 6 h was 1670 ng·h/mL.

Take `CCN1CCN(C(=O)OC2(C3CCCC(c4cc(F)cc(F)c4)N3S(=O)(=O)c3ccc(Cl)cc3)CC2)CC1` (racemic): the IC50 turned out to be 7.5 nM against Gamma-secretase [1] and 1.1 nM at Gamma-secretase [2]. In “in vivo”, this molecule returned an AUC(0-t) at 6 h of 1400 ng·h/mL.

`O=C(OC1(C2CCCC(c3cc(F)cc(F)c3)N2S(=O)(=O)c2ccc(Cl)cc2)CC1)N1CCNCC1` (racemic; form 1): on Gamma-secretase [2], the midpoint of inhibition, the IC50, lay at 7.9 nM. In other words, the single-digit nanomolar range.

For `Cl.O=C(OC1(C2CCCC(c3cccc(F)c3)N2S(=O)(=O)c2ccc(Cl)cc2)CC1)N1CCC(N2CCCCC2)CC1` (racemic; form 2), the results for the IC50 against Gamma-secretase [1] and against Gamma-secretase [2] were 5 nM and 0.8 nM, respectively. In the data set “in vivo”, this molecule had an AUC(0-t) at 6 h of 802 ng·h/mL.

Turning to `O=C(OC1(C2CCCC(c3cc(F)cc(F)c3)N2S(=O)(=O)c2cc(F)cc(F)c2)CC1)N1CCC(N2CCCCC2)CC1` (racemic), the concentration for half-maximal inhibition (IC50) on Gamma-secretase [1] worked out at 12.9 nM; against Gamma-secretase [2], 3.5 nM. The molecule further gave an AUC(0-t) at 6 h in “in vivo” of 5050 ng·h/mL.

For the molecule `O=C(OC1(C2CCCC(c3cc(F)cc(F)c3)N2S(=O)(=O)c2ccc(Cl)cc2)CC1)N1CCC(N2CCCCC2)CC1` (racemic), the IC50 against Gamma-secretase [1] was determined as 5.8 nM; against Gamma-secretase [2], 0.3 nM. The AUC(0-t) at 6 h in “in vivo” is 1080 ng·h/mL.

At Gamma-secretase [2], `O=C(OCC1CCCC(c2cc(F)cc(F)c2)N1S(=O)(=O)c1ccc(Cl)cc1)N1CCN(C2CCCCC2)CC1` (racemic) had a 50% inhibitory concentration (IC50) of 36.1 nM. This counts as double-digit nanomolar.

For `O=C(OC1([C@H]2CCC[C@@H](c3cc(F)cc(F)c3)N2S(=O)(=O)c2ccc(Cl)cc2)CC1)N1CCC2(CC1)C(=O)NCN2c1ccccc1` (racemic), half-maximal inhibition against Gamma-secretase [2] (IC50) required 8.5 nM. This IC50 is about 4.2-fold lower than that of the molecule before.

Consider `O=C(OC1(C2CCCC(c3cccc(F)c3)N2S(=O)(=O)c2ccc(Cl)cc2)CC1)N1C2CCC1CC(N1CCCCC1)C2` (racemic), for which the figures for the IC50 at Gamma-secretase [1] and at Gamma-secretase [2] were 9.7 nM and 2.6 nM, respectively. In “in vivo”, this molecule had an AUC(0-t) at 6 h of 2880 ng·h/mL.

As for `C[C@H]1CN(CC2CC2)CCN1C(=O)OC1(C2CCCC(c3cc(F)cc(F)c3)N2S(=O)(=O)c2ccc(Cl)cc2)CC1` (mixture of isomers), at Gamma-secretase [2], the 50% inhibitory concentration (IC50) stood at 6.1 nM. That is a single-digit nanomolar value.

Take `CN1CN(C)C2(CCN(C(=O)OCC3CCCC(c4cc(F)cc(F)c4)N3S(=O)(=O)c3ccc(Cl)cc3)CC2)C1=O` (racemic): the 50% inhibitory concentration (IC50) at Gamma-secretase [2] stood at 26.8 nM.

In the case of `CC1CN(C(=O)OC2(C3CCCC(c4cccc(F)c4)N3S(=O)(=O)c3ccc(Cl)cc3)CC2)CC(C)N1` (racemic), the IC50 against Gamma-secretase [1] came to 120 nM; against Gamma-secretase [2], 5.3 nM. Besides, the AUC(0-t) at 6 h in “in vivo” turned out to be 1810 ng·h/mL.

As for `O=C(OC1(C2CCCC(c3cc(F)cc(F)c3)N2S(=O)(=O)c2cc(F)cc(F)c2)CC1)N1CCN(CCO)CC1` (racemic), the concentration for half-maximal inhibition (IC50) against Gamma-secretase [1] came out at 24.7 nM; at Gamma-secretase [2], 16.8 nM. In the data set “in vivo”, this molecule returned an AUC(0-t) at 6 h of 23100 ng·h/mL.

As to `Cl.O=C(OC1(C2CCCC(c3cc(F)cc(F)c3)N2S(=O)(=O)c2ccc(Cl)cc2)CC1)N1CCNCC1` (racemic; form 2), the values for the IC50 at Gamma-secretase [1] and against Gamma-secretase [2] were 106 nM and 7.9 nM, respectively. The molecule also registered an AUC(0-t) at 6 h in the data set “in vivo” of 6210 ng·h/mL.

Regarding `O=C(OC[C@H]1CCC[C@@H](c2cc(F)cc(F)c2)N1S(=O)(=O)c1ccc(Cl)cc1)N1CCC2(CC1)C(=O)NCN2c1ccccc1` (racemic), at Gamma-secretase [2], the IC50 worked out at 152 nM.

Turning to `C[C@H]1CN(CCO)CCN1C(=O)OC1(C2CCCC(c3cccc(F)c3)N2S(=O)(=O)c2ccc(Cl)cc2)CC1` (mixture of isomers), the IC50 at Gamma-secretase [1] was 28.7 nM; against Gamma-secretase [2], 2.1 nM. In “in vivo”, the AUC(0-t) at 6 h was 7210 ng·h/mL.

With `CCC(CO)NC1CC2CCC(C1)N2C(=O)OC1(C2CCCC(c3cccc(F)c3)N2S(=O)(=O)c2ccc(Cl)cc2)CC1` (racemic), the IC50 on Gamma-secretase [1] was determined as 21.5 nM; against Gamma-secretase [2], 5.2 nM. The AUC(0-t) at 6 h in “in vivo” was 3070 ng·h/mL.

In the case of `O=C(OC1(C2CCCC(c3cccc(F)c3)N2S(=O)(=O)c2ccc(Cl)cc2)CC1)N1C2CCC1CC(N1CC[C@@H](O)C1)C2` (mixture of isomers), the IC50 on Gamma-secretase [1] stood at 20 nM; against Gamma-secretase [2] it was 3.6 nM. In “in vivo”, this molecule registered an AUC(0-t) at 6 h of 2090 ng·h/mL.

In the case of `O=C(OC1(C2CCCC(c3cccc(F)c3)N2S(=O)(=O)c2ccc(Cl)cc2)CC1)N1CCC(O)(C2CC2)CC1` (racemic), the IC50 on Gamma-secretase [1] worked out at 7.7 nM; on Gamma-secretase [2], 3.7 nM.

On to `CCCC1(O)CCN(C(=O)OC2(C3CCCC(c4cccc(F)c4)N3S(=O)(=O)c3ccc(Cl)cc3)CC2)CC1` (racemic), for which the values for the IC50 on Gamma-secretase [1] and against Gamma-secretase [2] were 10.7 nM and 4.5 nM, respectively.

On Gamma-secretase [2], `C[C@H]1CN(CC2CC2)CCN1C(=O)OCC1CCCC(c2cc(F)cc(F)c2)N1S(=O)(=O)c1ccc(Cl)cc1` (mixture of isomers) displayed an IC50 of 110 nM.

Molecule `O=C(OC1(C2CCCC(c3cccc(F)c3)N2S(=O)(=O)c2ccc(Cl)cc2)CC1)N1CCC(N2CCCCC2)CC1` (racemic; form 1) came in with an IC50 on Gamma-secretase [2] of 0.7 nM.

`O=C(OC1(C2CCCC(c3cc(F)cc(F)c3)N2S(=O)(=O)c2ccc(Cl)cc2)CC1)N1CCN(C2CCCCC2)CC1` (racemic) showed an IC50 at Gamma-secretase [2] of 4.2 nM. Compared with the last molecule, the IC50 is about 6-fold higher.

For `C[C@H]1CNCCN1C(=O)OC1(C2CCCC(c3cc(F)cc(F)c3)N2S(=O)(=O)c2ccc(Cl)cc2)CC1` (mixture of isomers), the IC50 on Gamma-secretase [1] was found to be 154 nM; at Gamma-secretase [2], 16.8 nM.

Take `CC(C)(OC(=O)N1CCC(N2CCCCC2)CC1)C1CCCC(c2cccc(F)c2)N1S(=O)(=O)c1ccc(Cl)cc1` (racemic): the IC50 on Gamma-secretase [2] amounted to 4.4 nM. In the data set “in vivo”, this molecule registered an AUC(0-t) at 6 h of 2430 ng·h/mL.

Turning to `O=C(OC1(C2CCCC(c3cccc(F)c3)N2S(=O)(=O)c2ccc(Cl)cc2)CC1)N1CCN(CCO)CC1` (racemic), the IC50 on Gamma-secretase [1] stood at 7 nM; at Gamma-secretase [2], 1.9 nM. In the data set “in vivo”, this molecule had an exposure AUC(0-t) at 6 h of 2090 ng·h/mL.
